Experimental data taken from PubChem BioAssay (NCI).
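Each compound was tested at five concentrations against cells in 96-well plates for 48 hours. TGI is the concentration that stops growth completely.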

How the values were obtained:
Assay in all cases: DTP human tumour cell line panel, 48 h
[1] = tested on: 786-0 renal
[2] = tested on: A498 renal
[3] = tested on: A549 NSCLC
[4] = tested on: ACHN renal
[5] = tested on: CAKI-1 renal
[6] = tested on: COLO 205 colon
[7] = tested on: DU-145 prostate
[8] = tested on: EKVX NSCLC
[9] = tested on: HCC-2998 colon
[10] = tested on: HCT-116 colon
[11] = tested on: HCT-15 colon
[12] = tested on: HL-60(TB) leukemia
[13] = tested on: HOP-62 NSCLC
[14] = tested on: HOP-92 NSCLC
[15] = tested on: HS 578T breast
[16] = tested on: HT29 colon
[17] = tested on: IGROV1 ovarian
[18] = tested on: K-562 leukemia
[19] = tested on: KM12 colon
[20] = tested on: LOX IMVI melanoma
[21] = tested on: M14 melanoma
[22] = tested on: MALME-3M melanoma
[23] = tested on: MCF7 breast
[24] = tested on: MDA-MB-231 breast
[25] = tested on: MDA-MB-435
[26] = tested on: MDA-N
[27] = tested on: MOLT-4 leukemia
[28] = tested on: NCI-H226 lung
[29] = tested on: NCI-H23 lung
[30] = tested on: NCI-H460 lung
[31] = tested on: NCI/ADR-RES ovarian
[32] = tested on: OVCAR-3 ovarian
[33] = tested on: OVCAR-4 ovarian
[34] = tested on: OVCAR-5 ovarian
[35] = tested on: OVCAR-8 ovarian
[36] = tested on: PC-3 prostate
[37] = tested on: RPMI-8226 leukemia
[38] = tested on: RXF 393 renal
[39] = tested on: SF-268 CNS
[40] = tested on: SF-295 CNS
[41] = tested on: SF-539 CNS
[42] = tested on: SK-MEL-2 melanoma
[43] = tested on: SK-MEL-28 melanoma
[44] = tested on: SK-OV-3 ovarian
[45] = tested on: SN12C renal
[46] = tested on: SNB-19 CNS
[47] = tested on: SNB-75 CNS
[48] = tested on: SR leukemia
[49] = tested on: SW-620 colon
[50] = tested on: T-47D breast
[51] = tested on: TK-10 renal
[52] = tested on: U251 CNS
[53] = tested on: UACC-257 melanoma
[54] = tested on: UACC-62 melanoma
[55] = tested on: UO-31 renal

CSC(Cc1ccc2c(c1)Sc1ccccc1O2)=[N+]1CCOCC1
TGI [1]: > 100 µM | TGI [2]: > 100 µM | TGI [3]: > 100 µM | TGI [4]: > 100 µM | TGI [5]: > 100 µM | TGI [6]: > 100 µM | TGI [7]: > 100 µM | TGI [8]: > 100 µM | TGI [9]: > 100 µM | TGI [10]: > 100 µM | TGI [11]: > 100 µM | TGI [12]: > 100 µM | TGI [13]: > 100 µM | TGI [14]: > 100 µM | TGI [15]: 86.6 µM | TGI [16]: > 100 µM | TGI [17]: > 100 µM | TGI [18]: > 100 µM | TGI [19]: > 100 µM | TGI [20]: > 100 µM | TGI [21]: > 100 µM | TGI [22]: 90.9 µM | TGI [23]: > 100 µM | TGI [24]: > 100 µM | TGI [25]: > 100 µM | TGI [26]: > 100 µM | TGI [27]: > 100 µM | TGI [28]: > 100 µM | TGI [29]: > 100 µM | TGI [30]: > 100 µM | TGI [31]: > 100 µM | TGI [32]: > 100 µM | TGI [33]: > 100 µM | TGI [34]: > 100 µM | TGI [35]: > 100 µM | TGI [36]: > 100 µM | TGI [37]: > 100 µM | TGI [38]: > 100 µM | TGI [39]: > 100 µM | TGI [40]: > 100 µM | TGI [41]: > 100 µM | TGI [42]: > 100 µM | TGI [43]: > 100 µM | TGI [44]: > 100 µM | TGI [45]: > 100 µM | TGI [46]: > 100 µM | TGI [47]: > 100 µM | TGI [48]: 11.7 µM | TGI [49]: > 100 µM | TGI [50]: > 100 µM | TGI [51]: > 100 µM | TGI [52]: > 100 µM | TGI [53]: > 100 µM | TGI [54]: > 100 µM | TGI [55]: > 100 µM
